# Reference: patent publication US7879878B2, “Quinolone derivative or salt thereof” (Astellas Pharma Inc., priority 2003, dated 2011)
# What was measured:
# [1] = tested on: Human platelet aggregation; assay: Test for assaying human platelet aggregation-inhibiting activity (ADP-induced aggregation in platelet-enriched plasma); type: cell-based; settings: compound at 10 μM final concentration; human PRP; aggregation induced by ADP; area-under-the curve of platelet aggregation as indicator; read-out: % inhibition (Human platelet aggregation-inhibiting action)
# Protocol: (1) Test for Assaying Human Platelet Aggregation-Inhibiting Activity
# Blood was withdrawn from healthy human volunteers (adult males), in the presence of a 1/10th volume of sodium citrate, and centrifuged to obtain supernatant platelet-enriched plasma (PRP). The platelet count in PRP was determined with an automatic blood cell counter (MEK-6258; manufactured by NIHON KOHDEN CORPORATION). Then, the platelet count in PRP was adjusted to 3×10^8/ml with platelet-poor plasma. ADP as a platelet aggregation-inducing agent was a product of MCMEDICAL, Inc. Platelet aggregation was measured using an aggregometer (MCM Hematracer 212; MCMEDICAL, Inc.). Specifically, 80 μl of PRP and 10 μl of a solution of an active ingredient or compound of the invention or a solvent (10% DMSO) were incubated together at 37° C. for one minute, to which 10 μl of ADP (50 μM) was added to induce platelet aggregation. Then, the change of the transmitting light was recorded over 5 minutes. Using the area-under-the curve of platelet aggregation as an indicator, the inhibition ratio was calculated.
# [2] = biological target: T1, human P2Y12 (Homo sapiens, UniProt Q9H244); assay: Substitution test of the binding between human P2Y12 and 2-methylthio-ADP (2-MeS-ADP); settings: compound at 30 nM final concentration; [3H]-2-MeS-ADP; membrane fraction of C6-15 cells expressing human P2Y12
# T1 construct: expressed in transfected cells; membrane fraction
# Protocol: (2) Substitution Test of the Binding Between Human P2Y12 and 2-methylthio-ADP (2-MeS-ADP)
# After C6-15 cells were inoculated on a DMEM culture medium to 1×10^6 cells in a 10-cm petri dish for culturing for one day, where 8 μg of a plasmid pEF-BOS-dhfr-human P2Y12 and 0.8 μg of pEF-BOS-neo (Nucleic Acid Res., 18, 5322, 1990) were genetically introduced with a transfection reagent (LipofectAMINE 2000; manufactured by GIBCO BRL).
# 24 hours after the gene introduction procedure described above, the cells with the gene introduced therein were recovered and suspended in a DMEM culture medium containing 0.6 mg/ml G418 (manufactured by GIBCO BRL), to prepare serial dilutions, which were inoculated on a 10-cm petri dish. Colonies appearing 2 weeks later were individually obtained and defined as C6-15 cell expressing the protein P2Y12, for use in the following experiment (WO 02/36631, Mol. Pharmacol., 60, 432, 2001).
# The C6-15 cell expressing the protein P2Y12 was cultured and recovered. […]
# 1.5 μl of an active ingredient or compound of the invention and 50 μl of 0.75 nM [^3H]-2-MeS-ADP (80 Ci/mmol; manufactured by Amersham Pharmacia Biotech) were added to 100 μl of the P2Y12 protein-expressing C6-15 cell membrane fraction (100 μg/ml) thus prepared, for incubation in 50 mM Tris-HCl, pH 7.4 containing 100 mM NaCl and 50 mM MgCl2, at ambient temperature for one hour. […] Adding a microscintillator onto the glass filter, the radioactivity was assayed with a liquid scintillation counter. At the test, additionally, the radioactivity levels of such cell cultures with no addition of the compound and with addition of 1.5 μl of 100 μM 2-MeS-ADP were assayed as total binding and non-specific binding, respectively. Defining the total binding and the non-specific binding at inhibition ratios of 0% and 100%, respectively, the inhibition ratio (%) of an active ingredient or compound in accordance with the invention was calculated.
# T1 sequence (Q9H244 whole entry): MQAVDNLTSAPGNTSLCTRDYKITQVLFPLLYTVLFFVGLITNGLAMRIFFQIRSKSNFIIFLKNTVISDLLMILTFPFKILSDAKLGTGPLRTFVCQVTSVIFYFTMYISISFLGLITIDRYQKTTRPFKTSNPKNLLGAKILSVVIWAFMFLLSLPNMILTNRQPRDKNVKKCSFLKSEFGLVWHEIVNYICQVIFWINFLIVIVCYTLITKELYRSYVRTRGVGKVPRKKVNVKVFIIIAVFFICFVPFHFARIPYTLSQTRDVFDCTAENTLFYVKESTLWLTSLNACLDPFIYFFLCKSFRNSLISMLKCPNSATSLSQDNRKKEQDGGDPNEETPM
inhibition at 0.03 µM [2],Compound,inhibition at 10 µM [1],% inhibition (Inhibition activity of the binding between P2Y12 and 2-MeS-ADP) [2]
96%,"CC1(C)OCC(n2cc(C(=O)NCCP(=O)(O)O)c(=O)c3cc(F)c(NC4CCCCC4)cc32)CO1 [Example 18, [2-({[7-(cyclohexylamino)-1-(2,2-dimethyl-1,3-dioxan-5-yl)-6-fluoro-4-oxo-1,4-dihydroquinolin-3-yl]carbonyl}amino)ethyl]phosphonic acid]",92%,
,"CCOP(=O)(O)CCNC(=O)c1cn(C(CO)CO)c2cc(NC3CCCCC3)c(F)cc2c1=O [Example 22, ethyl{2-[({7-(cyclohexylamino)-6-fluoro-4-oxo-1-[2-hydroxy-1-(hydroxymethyl)ethyl]-4-oxo-1,4-dihydroquinolin-3-yl}carbonyl)amino]ethyl}phosphonic acid]",,75%
63%,"CCC(CC)n1cc(C(=O)NC(C)(C)C(=O)O)c(=O)c2cc(F)c(NC3CCCCC3)cc21 [Example 28, 2-({[7-(cyclohexylamino)-1-(1-ethylpropyl)-6-fluoro-4-oxo-1,4-dihydroquinolin-3-yl]carbonyl}amino)-2-methylpropionic acid]",,
